Experimental data taken from patent US7709471B2, “Compounds” (AstraZeneca AB, priority 2006, dated 2010).

How the values were obtained:
recombinant Plk1 = recombinant Plk1 (Homo sapiens, UniProt P53350); experiment: In Vitro Plk1 Enzyme Assay (SPA, GST-Cdc25C phosphorylation); type: biochemical; conditions: ATP 64 nM, 90 minutes, read-out: IC50 (Plk1 enzyme inhibition)
[1] = system: human colon tumour cell line HT29; experiment: Cellular Assay (phosphohistone H3 Ser10 mitotic marker, HT29); type: cell-based; conditions: HT-29, 24 h, HT29 cells, read-out: IC50 (cellular assay, phosphohistone H3)
Experimental: Chromosome condensation in mitosis is accompanied by phosphorylation of histone H3 on serine 10.
After 24 hours, cells were fixed in 3.7% (v/v) formaldehyde then permeabilised and blocked for 10 minutes in 100 μl 0.5% (v/v) Triton X-100, 1% (w/v) bovine serum albumin (BSA) in phosphate buffered saline (PBS). […] The raw assay data were analysed by non-linear regression analysis and used to determine an IC50 value for each compound.

Chain of recombinant Plk1 (P53350 whole entry): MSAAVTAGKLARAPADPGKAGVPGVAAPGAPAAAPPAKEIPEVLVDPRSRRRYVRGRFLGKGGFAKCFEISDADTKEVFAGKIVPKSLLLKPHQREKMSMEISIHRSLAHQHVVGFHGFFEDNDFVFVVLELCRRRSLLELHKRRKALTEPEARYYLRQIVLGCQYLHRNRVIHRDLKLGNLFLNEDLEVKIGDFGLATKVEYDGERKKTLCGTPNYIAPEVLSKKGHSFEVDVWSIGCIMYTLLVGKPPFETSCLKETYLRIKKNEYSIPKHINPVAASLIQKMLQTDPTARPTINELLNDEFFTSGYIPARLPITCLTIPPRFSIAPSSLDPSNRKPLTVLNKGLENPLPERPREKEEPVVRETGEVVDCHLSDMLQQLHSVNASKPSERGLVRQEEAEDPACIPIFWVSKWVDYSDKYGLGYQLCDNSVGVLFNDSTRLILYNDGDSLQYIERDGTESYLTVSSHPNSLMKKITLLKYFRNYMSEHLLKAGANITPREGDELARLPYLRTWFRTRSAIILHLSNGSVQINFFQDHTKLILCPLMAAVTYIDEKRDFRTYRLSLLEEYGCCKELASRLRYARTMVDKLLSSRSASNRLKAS

| Structure (SMILES) | IC50 (recombinant Plk1) [nM] | IC50 [1] [nM] |
| --- | --- | --- |
| CCN1CCC(NC(=O)c2ccc(Nc3ncc4c(n3)N(C3CCCC3)CC3(CC3)C(=O)N4C)c(OC)c2)CC1 [Example 383, 4-(9′-cyclopentyl-5′-methyl-6′-oxo-5′,6′,8′,9′-tetrahydrospiro[cyclopropane-1,7′-pyrimido[5,4-b][1,4]diazepine]-2′-ylamino)-N-(1-ethyl-4-piperidyl)-3-methoxy-benzamide] | < 1000 | < 300 |
| COc1cc(C(=O)NC2C[C@H]3CCC[C@@H](C2)N3C)ccc1Nc1ncc2c(n1)N(C1CCCC1)CC1(CC1)C(=O)N2C (stereo partly drawn) [Example 385, 4-(9′-cyclopentyl-5′-methyl-6′-oxo-5′,6′,8′,9′-tetrahydrospiro[cyclopropane-1,7′-pyrimido[5,4-b][1,4]diazepine]-2′-ylamino)-3-methoxy-N-[(1S,5R)-9-methyl-9-azabicyclo[3.3.1]non-7-yl]benzamide] | < 300 | < 300 |
| COc1cc(C(=O)NCC(C)(C)CN(C)C)ccc1Nc1ncc2c(n1)N(C1CCCC1)CC1(CC1)C(=O)N2C [Example 386, 4-(9′-cyclopentyl-5′-methyl-6′-oxo-5′,6′,8′,9′-tetrahydrospiro[cyclopropane-1,7′-pyrimido[5,4-b][1,4]diazepine]-2′-ylamino)-N-(3-dimethylamino-2,2-dimethyl-propyl)-3-methoxy-benzamide] | < 300 | < 300 |
| COc1cc(C(=O)NCCN(C)C)ccc1Nc1ncc2c(n1)N(C1CCCC1)CC1(CC1)C(=O)N2C [Example 387, 4-(9′-cyclopentyl-5′-methyl-6′-oxo-5′,6′,8′,9′-tetrahydrospiro[cyclopropane-1,7′-pyrimido[5,4-b][1,4]diazepine]-2′-ylamino)-N-(2-dimethylaminoethyl)-3-methoxy-benzamide] | < 300 | < 300 |
| COc1cc(C(=O)NC2CCN(C)CC2)ccc1Nc1ncc2c(n1)N(C1CCCC1=O)CCC(=O)N2C (stereo not drawn) [Example 410, 3-methoxy-4-[[6-methyl-5-oxo-2-(2-oxocyclopentyl)-2,6,9,11-tetrazabicyclo[5.4.0]undeca-7,9,11-trien-10-yl]amino]-N-(1-methyl-4-piperidyl)benzamide] | < 1000 | < 30000 |
| COc1cc(C(=O)NC2CCN(C)CC2)ccc1Nc1ncc2c(n1)N(C1CCCCC1)CC1(CC1)C(=O)N2C [Example 430, 4-(9′-cyclohexyl-5′-methyl-6′-oxo-5′,6′,8′,9′-tetrahydrospiro[cyclopropane-1,7′-pyrimido[5,4-b][1,4]diazepine]-2′-ylamino)-3-methoxy-N-(1-methyl-4-piperidyl)benzamide] | < 300 | < 300 |
| COc1cc(C(=O)NCCCN(C)C)ccc1Nc1ncc2c(n1)N(C1CCCCC1)CC1(CC1)C(=O)N2C [Example 431, 4-(9′-cyclohexyl-5′-methyl-6′-oxo-5′,6′,8′,9′-tetrahydrospiro[cyclopropane-1,7′-pyrimido[5,4-b][1,4]diazepine]-2′-ylamino)-N-(3-dimethylaminopropyl)-3-methoxy-benzamide] | < 300 | < 300 |
| COc1cc(C(=O)NC2C[C@H]3CCC[C@@H](C2)N3C)ccc1Nc1ncc2c(n1)N(C1CCCCC1)CC1(CC1)C(=O)N2C (stereo partly drawn) [Example 432, 4-(9′-cyclohexyl-5′-methyl-6′-oxo-5′,6′,8′,9′-tetrahydrospiro[cyclopropane-1,7′-pyrimido[5,4-b][1,4]diazepine]-2′-ylamino)-3-methoxy-N-[(1S,5R)-9-methyl-9-azabicyclo[3.3.1]non-7-yl]benzamide] | < 300 | < 300 |
| CCN1CCC(NC(=O)c2ccc(Nc3ncc4c(n3)N(C3CCCCC3)CC3(CC3)C(=O)N4C)c(OC)c2)CC1 [Example 433, 4-(9′-cyclohexyl-5′-methyl-6′-oxo-5′,6′,8′,9′-tetrahydrospiro[cyclopropane-1,7′-pyrimido[5,4-b][1,4]diazepine]-2′-ylamino)-N-(1-ethyl-4-piperidyl)-3-methoxy-benzamide] | < 100000 | < 300 |
